A word on the IC50: it is the concentration needed to halve the response being measured.

The subject of one assay is HCT116 cells. The experiment in a line: Inhibition of KRas-mediated phosphorylation of ERK (Cisbio HTRF pERK), HCT116 cells. The assay is classed as cell-based. As to conditions: Homo sapiens, HCT-116, 3 h, 3 hr compound incubation. (In general: In TR-FRET formats the signal depends on donor and acceptor labels being close together.)
A further assay deals with PSN1 cells. The experiment in a line: Inhibition of KRas-mediated phosphorylation of ERK (Cisbio HTRF pERK), PSN1 cells. Type of assay: cell-based. As to conditions: Homo sapiens, PSN1, 3 h. Summed up:
(§1)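 Phospho-ERK signal measured by HTRF after cells had been plated at 6,000/well in RPMI supplemented with 10% FBS on day 1.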

The next assay concerns H727 cells. The experiment in a line: Inhibition of KRas-mediated phosphorylation of ERK (Cisbio HTRF pERK), H727 cells. Type of assay: cell-based. The settings on record: Homo sapiens, NCI-H727, 3 h, 3 hr compound incubation.
A further assay has as its system MKN1 cells. The experiment in a line: Inhibition of KRas-mediated phosphorylation of ERK (Cisbio HTRF pERK), MKN1 cells. The assay is classed as cell-based. As to conditions: Homo sapiens. Summed up:
as §1

For the next assay, the target named is KRas G12S (Homo sapiens, UniProt P01116, G12S). The assay is classed as binding. As to conditions: TR-FRET displacement, read-out: Binding to KRas (IC50 nM) G12S.
Sequence of KRas G12S (P01116 1-169 isoform P01116-2 G12S): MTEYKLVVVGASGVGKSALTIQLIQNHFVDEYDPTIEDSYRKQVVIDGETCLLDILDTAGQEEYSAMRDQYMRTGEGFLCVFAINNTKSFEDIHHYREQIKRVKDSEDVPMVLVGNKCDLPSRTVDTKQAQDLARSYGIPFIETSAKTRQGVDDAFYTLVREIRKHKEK
A further assay deals with A549 cells. The experiment in a line: Inhibition of KRas-mediated phosphorylation of ERK (Cisbio HTRF pERK), A549 cells. The settings on record: Homo sapiens, A549, 3 h, 3 hr compound incubation. Type of assay: cell-based.
The target in the next assay is KRas WT (Homo sapiens, UniProt P01116). The experiment in a line: KRas binding assay (TR-FRET displacement), KRas WT. The settings on record: TR-FRET displacement.
Sequence of KRas WT (P01116 1-169 isoform P01116-2): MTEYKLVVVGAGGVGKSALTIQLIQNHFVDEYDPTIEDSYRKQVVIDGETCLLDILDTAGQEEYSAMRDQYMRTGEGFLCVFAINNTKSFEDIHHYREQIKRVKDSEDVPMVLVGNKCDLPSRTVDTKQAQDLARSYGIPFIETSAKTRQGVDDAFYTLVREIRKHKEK
The next assay deals with KRas G12D (Homo sapiens, UniProt P01116, G12D). The experiment in a line: biochemical. As to conditions: Binding to KRas (IC50 nM) G12D, TR-FRET displacement, KRas G12D.
Sequence of KRas G12D (P01116 1-169 isoform P01116-2 G12D): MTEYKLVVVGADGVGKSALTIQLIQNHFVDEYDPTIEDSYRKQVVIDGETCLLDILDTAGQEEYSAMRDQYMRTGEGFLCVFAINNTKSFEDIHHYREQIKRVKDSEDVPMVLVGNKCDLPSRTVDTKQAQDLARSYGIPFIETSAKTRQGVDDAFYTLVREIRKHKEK
A further assay relates to H460 cells. The experiment in a line: Inhibition of KRas-mediated phosphorylation of ERK (Cisbio HTRF pERK), H460 cells. Type of assay: cell-based. The settings on record: Homo sapiens, NCI-H460, 3 h, 3 hr compound incubation.
For another assay, the system named is H358 cells. The experiment in a line: Inhibition of KRas-mediated phosphorylation of ERK (Cisbio HTRF pERK), H358 cells. Type of assay: cell-based. The settings on record: Homo sapiens, NCI-H358, 3 h, 3 hr compound incubation.
Another assay addresses KRas G12C (Homo sapiens, UniProt P01116, G12C). Type of assay: binding. The settings on record: TR-FRET displacement, read-out: Binding to KRas (IC50 nM) G12C.
For another assay, the system named is ASPC1 cells. The experiment in a line: Inhibition of KRas-mediated phosphorylation of ERK (Cisbio HTRF pERK), ASPC1 cells. Type of assay: cell-based. As to conditions: Homo sapiens, ASPC1, 3 h, AsPC-1 cells, 3 hr compound incubation.
The target of the next assay is KRas G12V (Homo sapiens, UniProt P01116, G12V). The experiment in a line: biochemical. As to conditions: Binding to KRas (IC50 nM) G12V, TR-FRET displacement, KRas G12V.
Sequence of KRas G12V (P01116 1-169 isoform P01116-2 G12V): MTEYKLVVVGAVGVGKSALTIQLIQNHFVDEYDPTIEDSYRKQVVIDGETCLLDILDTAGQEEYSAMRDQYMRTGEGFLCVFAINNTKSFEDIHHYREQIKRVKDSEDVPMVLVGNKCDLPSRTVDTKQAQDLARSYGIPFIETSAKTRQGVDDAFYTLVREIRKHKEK
The next assay addresses KRas G12R (Homo sapiens, UniProt P01116, G12R). The experiment in a line: biochemical. As to conditions: Binding to KRas (IC50 nM) G12R, TR-FRET displacement, KRas G12R.
Setting [1] is: MKN-1, 3 hr compound incubation.
[2] abbreviates: 3 hour compound incubation, Cisbio pERK HTRF.
The mark [3] stands for this setting: MKN-1, 3 hour compound incubation, Cisbio pERK HTRF.

Sequence of KRas G12C (P01116 1-169 isoform P01116-2 G12C): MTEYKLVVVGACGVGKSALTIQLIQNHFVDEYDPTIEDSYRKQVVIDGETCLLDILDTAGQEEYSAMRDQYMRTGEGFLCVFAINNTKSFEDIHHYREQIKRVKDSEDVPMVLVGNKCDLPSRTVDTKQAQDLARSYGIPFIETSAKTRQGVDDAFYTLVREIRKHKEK
Sequence of KRas G12R (P01116 1-169 isoform P01116-2 G12R): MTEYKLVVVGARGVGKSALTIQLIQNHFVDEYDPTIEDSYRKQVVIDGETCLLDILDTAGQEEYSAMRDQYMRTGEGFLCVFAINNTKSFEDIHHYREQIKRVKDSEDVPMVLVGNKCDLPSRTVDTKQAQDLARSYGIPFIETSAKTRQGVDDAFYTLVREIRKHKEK

For `C[C@@H]1C[C@@H]1c1c(Cl)cc(O)cc1N1CCc2c(nc(OC[C@@]34CCCN3C[C@H](F)C4)nc2N2CCC[C@]3(C2)NC(=O)NC3=O)C1` (stereo in doubt) [Example 653, (R)-7-(7-(3-chloro-5-hydroxy-2-(cis-2-methylcyclopropyl)phenyl)-2-(((2R,7aS)-2-fluorotetrahydro-1H-pyrrolizin-7a(5H)-yl)methoxy)-5,6,7,8-tetrahydropyrido[3,4-d]pyrimidin-4-yl)-1,3,7-triazaspiro[4.5]decane-2,4-dione], the IC50 was 28 nM in the assay on HCT116 cells; 131 nM with PSN1 cells (3 hr compound incubation); 60 nM with H727 cells; 2.4 nM in the assay with MKN1 cells (setting [1]); less than 2 nM on KRas G12S; 17 nM with A549 cells. The IC50 on KRas WT was less than 2 nM; at KRas G12D it was less than 2 nM; in the assay on H460 cells, 12 nM; with H358 cells, 6 nM; on KRas G12C, less than 2 nM; in the assay with ASPC1 cells it was 70 nM. This compound also yielded an IC50 on KRas G12V of less than 2 nM.
On to `C[C@@H]1C[C@@H]1c1c(Cl)cc(O)cc1N1CCc2c(nc(OC[C@@]34CCCN3C[C@H](F)C4)nc2N2CCCn3nc(C(=O)N(C)C)cc3C2)C1` (stereo in doubt) [Example 656, 5-(7-(3-chloro-5-hydroxy-2-(cis-2-methylcyclopropyl)phenyl)-2-(((2R,7aS)-2-fluorotetrahydro-1H-pyrrolizin-7a(5H)-yl)methoxy)-5,6,7,8-tetrahydropyrido[3,4-d]pyrimidin-4-yl)-N,N-dimethyl-5,6,7,8-tetrahydro-4H-pyrazolo[1,5-a][1,4]diazepine-2-carboxamide], for which the IC50 is 1220 nM in the assay with HCT116 cells; more than 10000 nM with PSN1 cells (3 hr compound incubation); 100 nM with H727 cells; 4.5 nM with MKN1 cells (setting [1]); 2 nM on KRas G12S; 294 nM with A549 cells. In addition, the IC50 on KRas WT is 5 nM; on KRas G12D it was less than 2 nM; in the assay on H460 cells it was 307 nM; in the assay with H358 cells, 54 nM; at KRas G12C it was 2 nM; with ASPC1 cells it was 82 nM. The compound also yielded an IC50 at KRas G12V of less than 2 nM.
Regarding `CCc1c(F)ccc2cc(O)cc(N3CCc4c(nc(OCC56CCCN5C/C(=C\F)C6)nc4N4CCC[C@@](C)(O)C4)C3)c12` (stereo partly drawn) [Example 574, (3R)-1-(7-(8-ethyl-7-fluoro-3-hydroxynaphthalen-1-yl)-2-(((Z)-2-(fluoromethylene)tetrahydro-1H-pyrrolizin-7a(5H)-yl)methoxy)-5,6,7,8-tetrahydropyrido[3,4-d]pyrimidin-4-yl)-3-methylpiperidin-3-ol], the IC50 in the assay on HCT116 cells (Cisbio pERK HTRF) is 18 nM; with PSN1 cells (setting [2]) it was 442 nM; in the assay with H727 cells (Cisbio pERK HTRF), 25 nM; with MKN1 cells (setting [3]), 0.4 nM; on KRas G12S, less than 2 nM; in the assay with A549 cells (Cisbio pERK HTRF) it was 16 nM. The IC50 on KRas WT is less than 2 nM; on KRas G12D, less than 2 nM; in the assay with H460 cells (Cisbio pERK HTRF), 12 nM; with H358 cells (Cisbio pERK HTRF), 5 nM; at KRas G12C it was less than 2 nM; in the assay with ASPC1 cells (Cisbio pERK HTRF) it was 13 nM. This compound registered an IC50 on KRas G12V of less than 2 nM.
For the compound `CCc1c(F)ccc2cc(O)cc(N3CCc4c(nc(OCC56CCCN5C/C(=C\F)C6)nc4N4C[C@@H]5C[C@H](C4)[C@H](O)C5)C3)c12` (stereo partly drawn) [Example 576, (1R,5R,6R)-3-(7-(8-ethyl-7-fluoro-3-hydroxynaphthalen-1-yl)-2-(((Z)-2-(fluoromethylene)tetrahydro-1H-pyrrolizin-7a(5H)-yl)methoxy)-5,6,7,8-tetrahydropyrido[3,4-d]pyrimidin-4-yl)-3-azabicyclo[3.2.1]octan-6-ol], the IC50 is 137 nM with HCT116 cells (Cisbio pERK HTRF); 2760 nM in the assay with PSN1 cells (setting [2]); 57 nM in the assay on H727 cells (Cisbio pERK HTRF); 5.8 nM in the assay on MKN1 cells (setting [3]); less than 2 nM on KRas G12S; 61 nM in the assay with A549 cells (Cisbio pERK HTRF). Further, the IC50 is 3 nM on KRas WT; 4 nM on KRas G12D; 57 nM in the assay with H460 cells (Cisbio pERK HTRF); 49 nM with H358 cells (Cisbio pERK HTRF); 3 nM at KRas G12C; 88 nM in the assay on ASPC1 cells (Cisbio pERK HTRF). This compound also came in with an IC50 at KRas G12V of less than 2 nM.
As for `CCc1c(F)ccc2cc(O)cc(N3CCc4c(nc(OCC56CCCN5C/C(=C\F)C6)nc4N4CCC[C@]5(C4)NC(=O)NC5=O)C3)c12` (stereo partly drawn) [Example 577, (5R)-7-(7-(8-ethyl-7-fluoro-3-hydroxynaphthalen-1-yl)-2-(((Z)-2-(fluoromethylene)tetrahydro-1H-pyrrolizin-7a(5H)-yl)methoxy)-5,6,7,8-tetrahydropyrido[3,4-d]pyrimidin-4-yl)-1,3,7-triazaspiro[4.5]decane-2,4-dione], the IC50 in the assay with HCT116 cells (Cisbio pERK HTRF) was 2 nM; in the assay on PSN1 cells (setting [2]), 7 nM; in the assay on H727 cells (Cisbio pERK HTRF), 6 nM; in the assay with MKN1 cells (setting [3]) it was 0.1 nM; at KRas G12S, less than 2 nM; in the assay with A549 cells (Cisbio pERK HTRF) it was 1 nM. Besides, the IC50 at KRas WT is less than 2 nM; on KRas G12D, less than 2 nM; in the assay with H460 cells (Cisbio pERK HTRF), 1 nM; in the assay on H358 cells (Cisbio pERK HTRF) it was 1 nM; on KRas G12C it was less than 2 nM; in the assay on ASPC1 cells (Cisbio pERK HTRF) it was 2 nM. Moreover, the IC50 on KRas G12V was less than 2 nM.
For `CCc1c(F)ccc2cc(O)cc(N3CCc4c(nc(OCC56CCCN5C/C(=C\F)C6)nc4N4CCCn5nc(C(=O)N(C)C)cc5C4)C3)c12` (stereo not drawn) [Example 578, (Z)-5-(7-(8-ethyl-7-fluoro-3-hydroxynaphthalen-1-yl)-2-((2-(fluoromethylene)tetrahydro-1H-pyrrolizin-7a(5H)-yl)methoxy)-5,6,7,8-tetrahydropyrido[3,4-d]pyrimidin-4-yl)-N,N-dimethyl-5,6,7,8-tetrahydro-4H-pyrazolo[1,5-a][1,4]diazepine-2-carboxamide], the IC50 in the assay on HCT116 cells (Cisbio pERK HTRF) is 36 nM; with PSN1 cells (setting [2]) it was 1040 nM; in the assay on H727 cells (Cisbio pERK HTRF), 2 nM; with MKN1 cells (setting [3]) it was 0.3 nM; on KRas G12S, less than 2 nM; with A549 cells (Cisbio pERK HTRF), 4 nM. Besides, the IC50 at KRas WT is less than 2 nM; at KRas G12D, less than 2 nM; with H460 cells (Cisbio pERK HTRF) it was 7 nM; in the assay with H358 cells (Cisbio pERK HTRF), 1 nM; at KRas G12C, less than 2 nM; with ASPC1 cells (Cisbio pERK HTRF), 1 nM. The IC50 on KRas G12V was less than 2 nM.
Turning to `C=C1CN2CC(=C)CC2(COc2nc3c(c(N4C[C@@H]5C[C@H](C4)[C@H](O)C5)n2)CCN(c2cc(O)cc4ccc(F)c(CC)c24)C3)C1` [Example 579, (1R,5R,6R)-3-(2-((2,6-dimethylenetetrahydro-1H-pyrrolizin-7a(5H)-yl)methoxy)-7-(8-ethyl-7-fluoro-3-hydroxynaphthalen-1-yl)-5,6,7,8-tetrahydropyrido[3,4-d]pyrimidin-4-yl)-3-azabicyclo[3.2.1]octan-6-ol], the IC50 with HCT116 cells (Cisbio pERK HTRF) was 968 nM; in the assay with PSN1 cells (setting [2]), more than 10000 nM; in the assay with H727 cells (Cisbio pERK HTRF), 513 nM; in the assay with MKN1 cells (setting [3]) it was 18.3 nM; on KRas G12S, 3 nM; in the assay with A549 cells (Cisbio pERK HTRF), 168 nM. For the same compound, the IC50 stood at 4 nM at KRas WT; 7 nM on KRas G12D; 227 nM in the assay on H460 cells (Cisbio pERK HTRF); 204 nM in the assay with H358 cells (Cisbio pERK HTRF); 4 nM at KRas G12C; 699 nM in the assay on ASPC1 cells (Cisbio pERK HTRF). Moreover, the IC50 on KRas G12V worked out at 2 nM.
For `CCc1c(F)ccc2cc(O)cc(N3CCc4c(nc(OC[C@@]56CCCN5C[C@H](F)C6)nc4N4C[C@H]5CC[C@@H](C4)[C@@H]5C#N)C3)c12` [Example 651, (1R,5S,8S)-3-(7-(8-ethyl-7-fluoro-3-hydroxynaphthalen-1-yl)-2-(((2R,7aS)-2-fluorotetrahydro-1H-pyrrolizin-7a(5H)-yl)methoxy)-5,6,7,8-tetrahydropyrido[3,4-d]pyrimidin-4-yl)-3-azabicyclo[3.2.1]octane-8-carbonitrile], the IC50 was 516 nM in the assay on HCT116 cells; more than 10000 nM in the assay on PSN1 cells (3 hr compound incubation); 84 nM in the assay with H727 cells; 23 nM in the assay with MKN1 cells (setting [1]); less than 2 nM on KRas G12R; 94 nM in the assay on A549 cells. The IC50 is 18 nM at KRas G12D; 165 nM in the assay with H460 cells; 45 nM with H358 cells; 572 nM with ASPC1 cells; less than 2 nM at KRas G12V.

For the origin of these results see US20250368649A1, “TETRAHYDROPYRIDOPYRIMIDINE PAN-KRAS INHIBITORS” (Mirati Therapeutics, Inc., priority 2022, published 2025).
